Measurements from patent US20220324835A1 (Nurix Therapeutics, Inc., priority 2018, published 2022).

What was measured:
[1] = system: human T-cells with allogenic immature dendritic cells; assay: Allogenic mixed lymphocyte reaction (MLR), T-cell proliferation; assay type: cell-based; settings: 120 h, 5 days, baseline T-cells without Cbl-b inhibitor, read-out: Proliferation, fold change over baseline
Experimental: Cbl-b inhibitor effects on primary human T-cells were also evaluated in the context of an allogenic mixed lymphocyte reaction (MLR). Allogenic immature dendritic cells were generated under the following conditions. Peripheral blood mononuclear cells (PBMC) were obtained either: 1) by using Ficoll-Paque™ (GE Healthcare) for separation of peripheral blood hematopoietic cells from huffy coats of healthy human donors; or 2) directly from LeukoPak donations. […] Monocytes were cultured with 30 ng/mL of recombinant human GM-CSF and 20 ng/mL of recombinant human IL-4 for seven days to generate immature dendritic cells. Monocytes and T-cells were either isolated fresh from peripheral blood or thawed from frozen stocks. Human T-cells were isolated, labeled with CFSE and incubated with inhibitors as described above. […] Proliferation of the T-cells was evaluated by flow cytometry.
Readouts for the allogenic mixed lymphocyte reaction were reported as fold change over baseline. Baseline for this study was the measurement obtained from total human T-cells stimulated with allogenic immature dendritic cells, wherein the T-cells were not incubated with a Cbl-b inhibitor (Table 5). Increases in proliferation greater than 2-fold over baseline were considered a positive response (Table 5).

T-cell [2] = assay: CD25 cell surface staining on T-cells stimulated with anti-CD3 antibody alone (Biological Example 2); assay type: cell-based; settings: primary human total T-cells, baseline = anti-CD3/anti-CD28 stimulated cells without inhibitor, read-out: CD25 staining, Anti-CD3 stimulation, fold change over baseline; for fold induction at 1 µM: 1 μM compound; for fold induction at 8 µM: 8 μM compound
T-cell [3] = assay: IL-2 secretion from T-cells stimulated with anti-CD3 antibody alone (Biological Example 2); assay type: cell-based; settings: primary human total T-cells, read-out: IL-2 secretion, Anti-CD3 stimulation, fold change over baseline; for fold induction at 1 µM: 1 μM compound; for fold induction at 8 µM: 8 μM compound
T-cells = assay: In vivo activity: CD25 expression on CD4+ or CD8+ T-cells of mice stimulated with anti-CD3 antibody; settings: 2 μg anti-CD3 antibody, 24 hours
How it was run: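 C57BL/6 or BALB/c mice dosed with inhibitor (IV, IP, SC or PO, e.g. BID or TID), then stimulated with 2 μg anti-CD3 antibody. Plasma IL-2, IFNγ, TNFα at 8 h and CD25 on CD4+/CD8+ T-cells by flow cytometry at 24 h; fold change over vehicle plus anti-CD3, binned A–E.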

SMILES | fold induction at 3 µM [1] | fold induction at 10 µM [1] | fold induction at 1 µM (T-cell [2]) | fold induction at 8 µM (T-cell [2]) | fold induction at 1 µM (T-cell [3]) | fold induction at 8 µM (T-cell [3]) | CD4+ T-cell % CD25+ (T-cells; 90 mpk PO BID) | CD8+ T-cell % CD25+ (T-cells; 90 mpk PO BID) | CD4+ T-cell % CD25+ (T-cells; 135 mpk PO BID) | CD8+ T-cell % CD25+ (T-cells; 135 mpk PO BID) | CD4+ T-cell % CD25+ (T-cells; 180 mpk PO BID) | CD8+ T-cell % CD25+ (T-cells; 180 mpk PO BID)
C[C@H](Cc1nncn1C)c1cccc(NC(=O)c2n[nH]c3c2CCC3)c1 [Compound 313, (R)-N-(3-(1-(4-Methyl-4H-1,2,4-triazol-3-yl)propan-2-yl)phenyl)-1,4,5,6-tetrahydrocyclopenta[c]pyrazole-3-carboxamide] | < 2 | < 2 | – | – | – | – | – | – | – | – | – | –
Cc1cc(C(=O)Nc2cccc([C@@H](C)Cc3nncn3C)c2)nc(C2CC2)n1 [Compound 325, (S)-2-Cyclopropyl-6-methyl-N-(3-(1-(4-methyl-4H-1,2,4-triazol-3-yl)propan-2-yl)phenyl)pyrimidine-4-carboxamide] | < 2 | < 2 | – | – | – | – | – | – | – | – | – | –
Cn1cnnc1CC1(c2cccc(NC(=O)c3nc4c(C(F)(F)F)cccc4[nH]3)c2)COC1 [Compound 335, N-(3-{3-[(4-methyl-1,2,4-triazol-3-yl)methyl]oxetan-3-yl}phenyl)-4-(trifluoromethyl)-1H-1,3-benzodiazole-2-carboxamide] | < 2 | < 2 | – | – | – | – | – | – | – | – | – | –
Cc1n[nH]c(C)c1-c1cc2c(c(C(F)(F)F)c1)CN(c1cccc(C3(Cc4nncn4C)COC3)c1)C2=O [Compound 385, 6-(3,5-dimethyl-1H-pyrazol-4-yl)-2-(3-{3-[(4-methyl-4H-1,2,4-triazol-3-yl)methyl]oxetan-3-yl}phenyl)-4-(trifluoromethyl)-2,3-dihydro-1H-isoindol-1-one] | < 2 | < 2 | > 1 | > 1 | 0.101 to 0.15 | > 0.201 | – | – | – | – | – | –
C[C@H](Cc1nncn1C)c1cccc(N2Cc3c(cc(CN4CC(O)C4)cc3C(F)(F)F)C2=O)c1 [Compound 393, (R)-6-((3-hydroxyazetidin-1-yl)methyl)-2-(3-(1-(4-methyl-4H-1,2,4-triazol-3-yl)propan-2-yl)phenyl)-4-(trifluoromethyl)isoindolin-1-one] | < 2 | 2.01 to 3 | > 1 | > 1 | > 0.201 | > 0.201 | – | – | – | – | – | –
C[C@H](Cc1nncn1C)c1cccc(N2Cc3c(cc(CN4CC(C)(O)C4)cc3C(F)(F)F)C2=O)c1 [Compound 397] | < 2 | 2.01 to 3 | > 1 | > 1 | 0.151 to 0.2 | > 0.201 | – | – | – | – | – | –
C[C@H](Cc1nncn1C)c1cccc(N2Cc3c(cc(CN4CC[C@](C)(O)C4)cc3C(F)(F)F)C2=O)c1 [Compound 398, 6-(((S)-3-hydroxy-3-methylpyrrolidin-1-yl)methyl)-2-(3-((R)-1-(4-methyl-4H-1,2,4-triazol-3-yl)propan-2-yl)phenyl)-4-(trifluoromethyl)isoindolin-1-one] | 2.01 to 3 | 2.01 to 3 | > 1 | > 1 | 0.101 to 0.15 | > 0.201 | – | – | – | – | – | –
C[C@H](Cc1nncn1C)c1cccc(N2Cc3c(cc(CN4CC[C@H](F)C4)cc3C(F)(F)F)C2=O)c1 [Compound 399, 6-(((S)-3-fluoropyrrolidin-1-yl)methyl)-2-(3-((R)-1-(4-methyl-4H-1,2,4-triazol-3-yl)propan-2-yl)phenyl)-4-(trifluoromethyl)isoindolin-1-one] | 2.01 to 3 | > 3.01 | > 1 | > 1 | 0.151 to 0.2 | > 0.201 | – | – | – | – | – | –
Cn1cnnc1CC1(c2cccc(N3Cc4c(cc(CN5CC[C@H](C#N)C5)cc4C(F)(F)F)C3=O)c2)COC1 [Compound 422, (S)-1-((2-(3-(3-((4-methyl-4H-1,2,4-triazol-3-yl)methyl)oxetan-3-yl)phenyl)-3-oxo-7-(trifluoromethyl)isoindolin-5-yl)methyl)pyrrolidine-3-carbonitrile] | < 2 | 2.01 to 3 | > 1 | > 1 | > 0.201 | > 0.201 | – | – | – | – | – | –
Cn1cnnc1C(F)(F)[C@](C)(F)c1cccc(N2Cc3c(cc(CN4CC[C@H](F)C4)cc3C(F)(F)F)C2=O)c1 [Compound 447, 6-(((S)-3-fluoropyrrolidin-1-yl)methyl)-2-(3-((R)-1,1,2-trifluoro-1-(4-methyl-4H-1,2,4-triazol-3-yl)propan-2-yl)phenyl)-4-(trifluoromethyl)isoindolin-1-one] | – | – | > 1 | > 1 | > 0.201 | > 0.201 | D (D indicates 1.00-1.50) | E (E indicates <1.00) | D (D indicates 1.00-1.50) | E (E indicates <1.00) | C (C indicates 1.51-2.00) | D (D indicates 1.00-1.50)
Cn1cnnc1C(F)(F)[C@](C)(F)c1cccc(N2Cc3c(cc(CN4CCC(F)(F)C4)cc3C(F)(F)F)C2=O)c1 [Compound 448, (R)-6-((3,3-difluoropyrrolidin-1-yl)methyl)-2-(3-(1,1,2-trifluoro-1-(4-methyl-4H-1,2,4-triazol-3-yl)propan-2-yl)phenyl)-4-(trifluoromethyl)isoindolin-1-one] | – | – | 0.801 to 1 | > 1 | 0.101 to 0.15 | > 0.201 | D (D indicates 1.00-1.50) | E (E indicates <1.00) | D (D indicates 1.00-1.50) | E (E indicates <1.00) | D (D indicates 1.00-1.50) | E (E indicates <1.00)
Cn1cnnc1CC1(c2cccc(N3Cc4c(cc(CN5CC6(CC6)C5)cc4C(F)(F)F)C3=O)c2)COC1 [Compound 487, 6-{5-azaspiro[2.3]hexan-5-ylmethyl}-2-(3-{3-[(4-methyl-1,2,4-triazol-3-yl)methyl]oxetan-3-yl}phenyl)-4-(trifluoromethyl)-3H-isoindol-1-one] | – | – | > 1 | – | > 0.201 | – | – | – | C (C indicates 1.51-2.00) | D (D indicates 1.00-1.50) | – | –
Cn1cnnc1CC1(c2cccc(NC(=O)c3cc(CN4CC[C@H](F)C4)cc(C4CC4)n3)c2)COC1 [Compound 496, 6-cyclopropyl-4-{[(3S)-3-fluoropyrrolidin-1-yl]methyl}-N-(3-{3-[(4-methyl-1,2,4-triazol-3-yl)methyl]oxetan-3-yl}phenyl)pyridine-2-carboxamide] | – | – | > 1 | – | > 0.201 | – | – | – | C (C indicates 1.51-2.00) | D (D indicates 1.00-1.50) | – | –
C[C@@H](c1cc2c(c(C(F)(F)F)c1)CN(c1cccc(C3(Cc4nncn4C)COC3)c1)C2=O)N1C[C@H]2C[C@H]2C1 [Compound 541a, 6-((1S)-1-(3-azabicyclo[3.1.0]hexan-3-yl)ethyl)-2-(3-(3-((4-methyl-4H-1,2,4-triazol-3-yl)methyl)oxetan-3-yl)phenyl)-4-(trifluoromethyl)isoindolin-1-one] | – | – | > 1 | – | > 0.201 | – | – | – | D (D indicates 1.00-1.50) | D (D indicates 1.00-1.50) | – | –
C[C@@H](c1cc2c(c(C(F)(F)F)c1)CN(c1cccc(C3(Cc4nncn4C)COC3)c1)C2=O)N1CCC(C)(F)CC1 [Example 553a, (S)-6-(1-(4-fluoro-4-methylpiperidin-1-yl)ethyl)-2-(3-(3-((4-methyl-4H-1,2,4-triazol-3-yl)methyl)oxetan-3-yl)phenyl)-4-(trifluoromethyl)isoindolin-1-one] | – | – | > 1 | – | > 0.201 | – | – | – | D (D indicates 1.00-1.50) | D (D indicates 1.00-1.50) | – | –
C[C@H](c1cc2c(c(C(F)(F)F)c1)CN(c1cccc(C3(Cc4nncn4C)COC3)c1)C2=O)N1CCC(C)(F)CC1 [Example 553b, (R)-6-(1-(4-fluoro-4-methylpiperidin-1-yl)ethyl)-2-(3-(3-((4-methyl-4H-1,2,4-triazol-3-yl)methyl)oxetan-3-yl)phenyl)-4-(trifluoromethyl)isoindolin-1-one] | – | – | > 1 | – | > 0.201 | – | – | – | A (A indicates >2.50) | D (D indicates 1.00-1.50) | – | –
